How the values were obtained:
[1] = system: C. tyrobutyricum original culture (wild type); test: Butyrate inhibition of cell growth, noncompetitive product inhibition model, original culture; type: cell-based, Clostridium tyrobutyricum
[2] = system: P. acidipropionici adapted ACK-Tet from FBB; conditions: at 20 g/L propionic acid
[3] = system: P. acidipropionici wild type; test: Propionic acid inhibition of specific growth rate, free-cell culture, wild type; conditions: at 20 g/L propionic acid

SMILES: CCCC(=O)O [butyric acid]
- butyrate concentration beyond which the culture lost its ability to grow [1]: > 20 g/L

SMILES: CCC(=O)O [propionic acid]
- specific growth rate retained relative to 0 g/L of propionic acid [2]: about 75%
- growth rate lost [3]: more than 80%

Reference: US20110151529A1, “METHODS AND PROCESSES FOR PRODUCING ORGANIC ACIDS” (THE OHIO STATE UNIVERSITY, priority 2008, published 2011)
